Measured values from paper PMC9841524, “Structure-Based Rational Design of Small α-Helical Peptides with Broad-Spectrum Activity against Multidrug-Resistant Pathogens” (Journal of Medicinal Chemistry, 2022).
≈ marks a conversion by molar mass, not a printed value. Where two headings read alike, the source gives them in different places. Where a SMILES comes first, the peptide text is derived from it. Bridges are numbered along the chain shown (N, C = ends). [ ]: non-standard residue; d: D form. The star is where a group is joined. X1 = CC[C@H](C)CCCCC(=O)*; Dab = NCC[C@H](N)C(=O)O

Key:
[1] = tested on: K. pneumoniae (ATCCBAA-1705); assay: MIC, standard microtiter dilution (CLSI); format: cell-based, Klebsiella pneumoniae; conditions: broth microdilution (CLSI), CAMHB, 37 °C, 24 h
Summary of the method: (§1)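 Inoculum 10^6 CFU/mL in CAMHB against 2-fold peptide series; salt variants used 150 mM NaCl, 4.5 mM KCl, 6 mM NH4Cl, 1 mM MgCl2, 2 mM CaCl2, or 25% FBS.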

[2] = tested on: E. coli (ATCC BAA-2452); assay: Flow cytometric analysis of PI-stained cells; format: cell-based; conditions: MIC and 4 × MIC, 1 h, flow cytometry
Procedure: The flow cytometric analysis was performed by using MRSA (ATCC BAA-1556) and E. coli (ATCC BAA-2452) cultures grown to the mid log phase in Mueller Hinton broth (HIMEDIA). Before treatment, bacterial cells were washed thrice with buffer (10 mM Tris, pH 7.4) and resuspended in the same buffer to obtain 10^7 CFU/mL bacterial suspensions. Test peptides (8a and 8b) and the standard antibiotics (daptomycin and polymyxin B) at MIC and 4 × MIC were incubated with bacterial suspension for 1 h. Following the treatment with test peptides, the cells were pelleted by centrifugation at 3000g for 15 min in a microcentrifuge. The supernatant was decanted, and the cells were washed with PBS several times and then incubated with PI ([…]) in the dark for 15 min at 37 °C. FACS analysis of the stained bacterial cells was performed using a FACscan flow cytometer (BD Accuri C6, BD Biosciences, California, USA), and data were analyzed by using Cell Quest software.

[3] = tested on: E. coli (ATCC BAA-2452); conditions: Gram-negative, NDM-1; CLSI microdilution, CAMHB, 37 °C, 24 h; highest MIC of three independent experiments in triplicate
Summary of the method: as §1

[4] = tested on: P. aeruginosa (ATCC BAA-1744); conditions: Gram-negative, resistant strain (marked a; imipenem resistant in Table S3); CLSI microdilution, CAMHB, 37 °C, 24 h; highest MIC of three independent experiments in triplicate
Summary of the method: as §1

[5] = tested on: P. aeruginosa (ATCC 10145); conditions: Gram-negative; CLSI microdilution, CAMHB, 37 °C, 24 h; highest MIC of three independent experiments in triplicate
Summary of the method: as §1

[6] = tested on: A. baumannii (ATCC BAA1605); conditions: Gram-negative, footnote e ciprofloxacin (MDR in Table S3); CLSI microdilution, CAMHB, 37 °C, 24 h; highest MIC of three independent experiments in triplicate
Summary of the method: as §1

[7] = tested on: E. coli (ATCC 25922); conditions: for MIC, E. coli (ATCC 25922): broth microdilution (CLSI), CAMHB, 37 °C, 24 h
Summary of the method: as §1

[8] = tested on: Klebsiella pneumonia (ATCC 13883); conditions: Gram-negative; CLSI microdilution, CAMHB, 37 °C, 24 h; highest MIC of three independent experiments in triplicate
Summary of the method: as §1

[9] = tested on: K. pneumonia (ATCC BAA-2470); conditions: Gram-negative, carbapenem-resistant; CLSI microdilution, CAMHB, 37 °C, 24 h; highest MIC of three independent experiments in triplicate
Summary of the method: as §1

[10] = tested on: E. coli (ATCC BAA-2452); assay: Bactericidal kinetic assay; format: cell-based
Procedure: The time course of bacterial killing was studied by the exposure of overnight grown cultures of MRSA (ATCC BAA-1556) and E. coli (ATCC BAA-2452) to 8a and 8b at the MIC and 4× the MIC in Muller Hinton media. Bacterial cells (2 × 10^6 CFU/mL) were treated with peptides and standard antibiotics and incubated at 37 °C. Aliquots were withdrawn at a 30 min time interval for 4 h and plated on the agar plate to determine the number of viable bacterial colonies. Data were obtained from two independent experiments performed in triplicate.

[11] = tested on: P. aeruginosa (ATCC 27883); assay: MIC, standard microtiter dilution (CLSI); format: cell-based, Pseudomonas aeruginosa; conditions: broth microdilution (CLSI), CAMHB, 37 °C, 24 h
Summary of the method: as §1

[12] = tested on: E. faecium (ATCC 700221); assay: microbe, parasite or virus in culture; conditions: Enterococcus faecium, ATCC700221, 24 h, read-out: MIC, E. faecium (ATCC 700221)
Procedure: (§2) Description of the characteristics and growth conditions of various bacterial strains used in the study are provided in the Supporting Information (Table S3). Antibacterial susceptibility testing was carried out using a standard microtiter dilution method recommended by the clinical and laboratory standard institute (CLSI) and measured as a minimum inhibitory concentration (MIC), the lowest peptide concentration that inhibited bacterial growth. Briefly, the overnight grown cultures in the recommended broth for each bacterial strain were diluted in cation-adjusted Mueller Hinton Broth (CAMHB) to give an inoculum of 10^6 colony-forming units (CFU)/mL. A 2-fold serially diluted test peptide solution (100 μL) was added to the microtiter plates. After adding bacterial suspension (100 μL), the plates were incubated at 37 °C for 24 h, and the MICs were determined. The same protocol was used to determine the MICs in the presence of salts and serum except using the media supplemented with various cationic salts (150 mM NaCl, 4.5 mM KCl, 6 mM NH4Cl, 1 mM MgCl2, and 2 mM CaCl2) or 25% FBS. The data was acquired from three independent assays performed in triplicate.
(§3) The bacterial strains employed in this study were obtained from the American Type Culture Collection (ATCC). Each strain was propagated as recommended by the ATCC, and each strain was stored as a frozen glycerol stock at -80°C. A bacterial colony was grown on the appropriate agar as indicated in Table S1 and was used to inoculate the appropriate broth. The culture was incubated at the appropriate conditions, as mentioned in Table S1. Following the incubation, the culture was diluted to an optical density 625 nm (OD625) of 0.1 in cation adjusted Mueller Hinton Broth (CAMHB), which is equivalent to 1 × 10^8 CFU/mL. The culture was further diluted to 1 × 10^6 CFU/mL, which was used to conduct the MIC determination assay. For the S. pneumoniae strains, CAMHB + 2.5% lysed horse blood was required for the assay. The strains with their […]
(§4) Table S3. Description of the characteristics and growth conditions of various bacterial strains

[13] = tested on: E. faecium (ATCC 27270); assay: microbe, parasite or virus in culture; conditions: Enterococcus faecium, ATCC27270, 24 h, read-out: MIC, E. faecium (ATCC 27270)
Procedure: as §2, §3, §4

[14] = tested on: E. faecalis (ATCC 51575); assay: microbe, parasite or virus in culture; conditions: Enterococcus faecalis, ATCC51575, 24 h, read-out: MIC, E. faecalis (ATCC 51575)
Procedure: as §2, §3, §4

[15] = 10^6 CFU/mL, highest MIC of three independent experiments in triplicate

SMILES: CC[C@H](C)CCCCC(=O)N[C@@H](CCN)C(=O)N[C@H](C(=O)N[C@@H](CCN)C(=O)N[C@H]1CCNC(=O)[C@H]([C@@H](C)O)NC(=O)[C@H](CCN)NC(=O)[C@H](CCN)NC(=O)[C@H](CC(C)C)NC(=O)[C@@H](Cc2ccccc2)NC(=O)[C@H](CCN)NC1=O)[C@@H](C)O [polymyxin B, reference compound] (X1-[Dab]T[Dab][Dab][Dab][dF]L[Dab][Dab]T; lactam 4-C (inferred); N-terminus assumed)
- MIC, K. pneumoniae (ATCCBAA-1705) [1, 15]: 0.7 µg/mL
- MIC, K. pneumoniae (ATCCBAA-1705) ([1]; value in parentheses (μM)): 0.58 µM
- PI-stained population of E. coli cells [2]: did not significantly increase
- MIC, E. coli (ATCC BAA-2452) [3]: 0.7 µg/mL
- MIC, P. aeruginosa (ATCC BAA-1744) [4]: 0.7 µg/mL
- MIC, P. aeruginosa (ATCC 10145) [5]: 0.7 µg/mL
- MIC, A. baumannii (ATCC BAA1605) [6]: 0.7 µg/mL
- MIC, E. coli (ATCC 25922), Control ([7]; MH media without salt ions or serum, three independent experiments in triplicate): 0.7 µg/mL
- MIC, E. coli (ATCC 25922) [7, 15]: 0.7 µg/mL
- MIC, E. coli (ATCC 25922), MgCl2 ([7]; media with 1 mM MgCl2, three independent experiments in triplicate): 1.5 µg/mL (≈ 1.25 µM)
- MIC, E. coli (ATCC 25922), CaCl2 ([7]; media with 2 mM CaCl2, three independent experiments in triplicate): 0.7 µg/mL (≈ 0.582 µM)
- MIC, E. coli (ATCC 25922), KCl ([7]; media with 4.5 mM KCl, three independent experiments in triplicate): 0.7 µg/mL (≈ 0.582 µM)
- MIC, E. coli (ATCC 25922), NH4Cl ([7]; media with 6 mM NH4Cl, three independent experiments in triplicate): 0.7 µg/mL (≈ 0.582 µM)
- MIC, E. coli (ATCC 25922), NaCl ([7]; media with 150 mM NaCl, three independent experiments in triplicate): 0.7 µg/mL (≈ 0.582 µM)
- MIC, E. coli (ATCC 25922), FBS (25%) ([7]; media with 25% fetal bovine serum, three independent experiments in triplicate): 3.1 µg/mL (≈ 2.58 µM)
- MIC, E. coli (ATCC 25922) ([7]; value in parentheses (μM)): 0.58 µM
- MIC, Klebsiella pneumonia (ATCC 13883) [8]: 6.2 µg/mL
- MIC, K. pneumonia (ATCC BAA-2470) [9]: 1.5 µg/mL
- time to complete eradication of E. coli cells at 4 × MIC [10]: 2.5 h
- MIC, P. aeruginosa (ATCC 27883) [11, 15]: 1.5 µg/mL
- MIC, P. aeruginosa (ATCC 27883) ([11]; value in parentheses (μM)): 1.25 µM

SMILES: CN[C@H](CC(C)C)C(=O)N[C@H]1C(=O)N[C@@H](CC(N)=O)C(=O)N[C@H]2C(=O)N[C@H]3C(=O)N[C@H](C(=O)N[C@H](C(=O)O)c4cc(O)cc(O)c4-c4cc3ccc4O)[C@H](O)c3ccc(c(Cl)c3)Oc3cc2cc(c3O[C@@H]2O[C@H](CO)[C@@H](O)[C@H](O)[C@H]2O[C@H]2C[C@](C)(N)[C@H](O)[C@H](C)O2)Oc2ccc(cc2Cl)[C@H]1O [vancomycin, reference compound]
- MIC [12]: > 50 µg/mL
- MIC [13]: 1.5 µg/mL (≈ 1.04 µM)
- MIC [14]: > 50 µg/mL
